Data as given in the supplement of paper PMC11061612.

Key:
Assay in all cases: combination Emax (second highest fraction inhibited in the dose matrix, 72 h); higher = more inhibition; extreme values may be limits of the assay
[1] = system: ATN-1 (T-Lymphoblastic Leukemia)
Method in brief: (§1)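 After 24 hours at 37°C and 5% CO2 in 1536-well plates, cells in DMEM/F12 or RPMI plus 10% FBS received two-drug dose matrices for 72 hours. Viability came from CellTiter-Glo 2.0 luminescence and was scaled as inhibition, anchored at 0 by vehicle wells and at 1 by blank wells. Combination Emax is taken as the second-highest inhibition in the matrix, and Bliss excess as the observed combination effect less EA + EB − EA·EB, with EA and EB the single-agent effects.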

[2] = system: BT-474 (Breast Carcinoma)
Method in brief: as §1

[3] = system: MRK-nu-1 (Breast Carcinoma)
Method in brief: as §1

[4] = system: OCI-M1 (Acute Myeloid Leukemia)
Method in brief: as §1

[5] = system: BC-1 (B-Cell Non-Hodgkin's Lymphoma)
Method in brief: as §1

[6] = system: NCI-H1975 (Lung Adenocarcinoma)
Method in brief: as §1

[7] = system: SW1463 (Colorectal Carcinoma)
Method in brief: as §1

[8] = system: NCI-H1048 (Small Cell Lung Carcinoma)
Method in brief: as §1

[9] = system: NCI-H2170 (Squamous Cell Lung Carcinoma)
Method in brief: as §1

[10] = system: GRANTA-519 (B-Cell Non-Hodgkin's Lymphoma)
Method in brief: as §1

[11] = system: NCI-H1435 (Non-Small Cell Lung Carcinoma)
Method in brief: as §1

[12] = system: NCI-H1648 (Lung Adenocarcinoma)
Method in brief: as §1

[13] = system: MDA-MB-175-VII (Breast Carcinoma)
Method in brief: as §1

[14] = system: SBC-5 (Small Cell Lung Carcinoma)
Method in brief: as §1

[15] = system: C2BBe1 (Colorectal Carcinoma)
Method in brief: as §1

[16] = system: GCIY (Gastric Carcinoma)
Method in brief: as §1

[17] = system: COR-L105 (Lung Adenocarcinoma)
Method in brief: as §1

[18] = system: HT-3 (Cervical Carcinoma)
Method in brief: as §1

[19] = system: HT-1197 (Bladder Carcinoma)
Method in brief: as §1

[20] = system: SBC-3 (Small Cell Lung Carcinoma)
Method in brief: as §1

| SMILES | combination Emax [1] | combination Emax [2] | combination Emax [3] | combination Emax [4] | combination Emax [5] | combination Emax [6] | combination Emax [7] | combination Emax [8] | combination Emax [9] | combination Emax [10] | combination Emax [11] | combination Emax [12] | combination Emax [13] | combination Emax [14] | combination Emax [15] | combination Emax [16] | combination Emax [17] | combination Emax [18] | combination Emax [19] | combination Emax [20] |
| --- | --- | --- | --- | --- | --- | --- | --- | --- | --- | --- | --- | --- | --- | --- | --- | --- | --- | --- | --- | --- |
| COc1cccc2c1C(=O)c1c(O)c3c(c(O)c1C2=O)C[C@@](O)(C(=O)CO)C[C@@H]3O[C@H]1C[C@H](N)[C@H](O)[C@H](C)O1 [Doxorubicin] + Cc1cc2ncnn2cc1Nc1ncc2c(n1)n(C1CCOCC1)c(=O)n2C [AZD7648] (first compound max 1 µM, 7x7, partner max 10 µM) | 0.996 | 0.197 | 0.695 | 0.963 | 1 | 0.932 | 0.196 | 0.933 | 0.891 | 0.856 | 0.198 | 0.598 | 0.512 | 0.77 | 0.242 | 0.663 | 0.473 | 0.781 | 0.735 | 0.968 |
| CN(CCO)CC[C@H](CSc1ccccc1)Nc1ccc(S(=O)(=O)NC(=O)c2ccc(N3CCC([C@@H](O)c4ccccc4-c4ccc(Cl)cc4)CC3)cc2)cc1S(=O)(=O)C(F)(F)F [AZD4320] + C1CN(CCC1(C(=O)N[C@@H](CCO)C2=CC=C(C=C2)Cl)N)C3=NC=NC4=C3C=CN4 [Capivasertib] (first compound max 1 µM, 7x7, partner max 3 µM) | 0.715 | 0.254 | 0.3 | 0.984 | 0.35 | 0.558 | 0.271 | 0.86 | 0.772 | 0.812 | 0.876 | 0.735 | 0.799 | 0.175 | 0.209 | 0.576 | 0.411 | 0.0692 | 0.321 | 0.246 |
| NC1(C(=O)N[C@@H](CCO)c2ccc(Cl)cc2)CCN(c2ncnc3[nH]ccc23)CC1 [Capivasertib] + CC(C)n1c(=O)n(C)c2cnc3cc(F)c(-c4ccc(OCCCN5CCCCC5)nc4)cc3c21 [AZD1390] (first compound max 10 µM, 7x7, partner max 0.3 µM) | 0.778 | 0.299 | 0.576 | 0.287 | 0.761 | 0.604 | 0.237 | 0.439 | 0.54 | 0.196 | 0.198 | 0.585 | 0.635 | 0.281 | 0.32 | 0.397 | 0.362 | 0.11 | 0.391 | 0.374 |
| Cc1c2c(nn1C)CSCc1cc(n(C)n1)CSc1cc(c3ccccc3c1)OCCCc1c(C(=O)O)n(C)c3c-2c(Cl)ccc13 [AZD5991] + CN(C)CCCOc1ccc(-c2ccc3ncc4c(c3c2)n(C2CCOCC2)c(=O)n4C)cn1 [AZD0156] (first compound max 1 µM, 7x7, partner max 1 µM) | 0.929 | 0.306 | 1 | 0.203 | 1 | 0.599 | 0.204 | 0.984 | 0.317 | 0.209 | 0.233 | 0.701 | 0.209 | 0.497 | 0.288 | 0.465 | 0.258 | 0.479 | 0.217 | 0.292 |
| NC1(C(=O)N[C@@H](CCO)c2ccc(Cl)cc2)CCN(c2ncnc3[nH]ccc23)CC1 [Capivasertib] + CC(=O)c1c(C)c2cnc(Nc3ccc(N4CCNCC4)cn3)nc2n(C2CCCC2)c1=O [Palbociclib] (first compound max 10 µM, 7x7, partner max 10 µM) | 0.686 | 0.332 | 0.382 | 0.61 | 0.928 | 0.638 | 0.502 | 0.503 | 0.527 | 0.227 | 0.244 | 0.567 | 0.556 | 0.353 | 0.314 | 0.631 | 0.362 | 0.2 | 0.551 | 0.67 |
| CCN(CCO)CCCOc1ccc2c(Nc3cc(CC(=O)Nc4cccc(F)c4)[nH]n3)ncnc2c1 [AZD2811] + O=C(c1cc(Cc2n[nH]c(=O)c3ccccc23)ccc1F)N1CCN(C(=O)C2CC2)CC1 [Olaparib] (first compound max 1 µM, 7x7, partner max 10 µM) | 0.835 | 0.168 | 0.491 | 0.268 | 0.669 | 0.191 | 0.226 | 0.698 | 0.623 | 0.452 | 0.196 | 0.233 | 0.23 | 0.392 | 0.131 | 0.427 | 0.231 | 0.18 | 0.203 | 0.617 |
| COc1cccc(OCCCN)c1-c1cc(Nc2cnc(C#N)cn2)n[nH]1 [Prexasertib] + O=C(c1cc(Cc2n[nH]c(=O)c3ccccc23)ccc1F)N1CCN(C(=O)C2CC2)CC1 [Olaparib] (first compound max 1 µM, 7x7, partner max 10 µM) | 1 | 0.24 | 0.674 | 0.981 | 0.986 | 0.299 | 0.601 | 0.894 | 0.787 | 0.865 | 0.345 | 0.802 | 0.376 | 0.914 | 0.414 | 0.837 | 0.401 | 0.646 | 0.478 | 0.744 |
| CCN(CCO)CCCOc1ccc2c(Nc3cc(CC(=O)Nc4cccc(F)c4)[nH]n3)ncnc2c1 [AZD2811] + C[C@@H]1COCCN1C2=NC(=NC(=C2)C3(CC3)[S@](=N)(=O)C)C4=C5C=CNC5=NC=C4 [AZD6738] (first compound max 1 µM, 7x7, partner max 10 µM) | 1 | 0.239 | 0.732 | 0.969 | 0.921 | 0.483 | 0.46 | 0.804 | 0.803 | 0.782 | 0.17 | 0.633 | 0.384 | 0.754 | 0.279 | 0.851 | 0.45 | 0.694 | 0.424 | 0.656 |
| CC(=O)c1c(C)c2cnc(Nc3ccc(N4CCNCC4)cn3)nc2n(C2CCCC2)c1=O [Palbociclib] + Cn1cnc2c(F)c(Nc3ccc(Br)cc3Cl)c(C(=O)NOCCO)cc21 [Selumetinib] (first compound max 10 µM, 7x7, partner max 10 µM) | 0.48 | 0.0817 | 0.438 | 0.833 | 0.91 | 0.455 | 0.646 | 0.0486 | 0.3 | 0.367 | 0.147 | 0.543 | 0.389 | 0.251 | 0.379 | 0.416 | 0.403 | 0.138 | 0.245 | 0.744 |
| CN(CCO)CC[C@H](CSc1ccccc1)Nc1ccc(S(=O)(=O)NC(=O)c2ccc(N3CCC([C@@H](O)c4ccccc4-c4ccc(Cl)cc4)CC3)cc2)cc1S(=O)(=O)C(F)(F)F [AZD4320] + CN(C)CCCOc1ccc(-c2ccc3ncc4c(c3c2)n(C2CCOCC2)c(=O)n4C)cn1 [AZD0156] (first compound max 1 µM, 7x7, partner max 1 µM) | 0.656 | 0.211 | 0.164 | 0.988 | 0.17 | 0.256 | 0.233 | 0.622 | 0.613 | 0.934 | 0.651 | 0.55 | 0.224 | 0.102 | 0.188 | 0.554 | 0.261 | 0.143 | 0.142 | 0.163 |
| Cc1c2c(nn1C)CSCc1cc(n(C)n1)CSc1cc(c3ccccc3c1)OCCCc1c(C(=O)O)n(C)c3c-2c(Cl)ccc13 [AZD5991] + Cc1cc2ncnn2cc1Nc1ncc2c(n1)n(C1CCOCC1)c(=O)n2C [AZD7648] (first compound max 1 µM, 7x7, partner max 10 µM) | 0.925 | 0.301 | 1 | 0.145 | 1 | 0.46 | 0.223 | 0.988 | 0.397 | 0.214 | 0.211 | 0.892 | 0.263 | 0.419 | 0.356 | 0.526 | 0.33 | 0.353 | 0.267 | 0.456 |
| CN(CCO)CC[C@H](CSc1ccccc1)Nc1ccc(S(=O)(=O)NC(=O)c2ccc(N3CCC([C@@H](O)c4ccccc4-c4ccc(Cl)cc4)CC3)cc2)cc1S(=O)(=O)C(F)(F)F [AZD4320] + C=CCn1c(=O)c2cnc(Nc3ccc(N4CCN(C)CC4)cc3)nc2n1-c1cccc(C(C)(C)O)n1 [AZD1775] (first compound max 1 µM, partner max 1 µM) | 0.982 | 0.526 | 0.174 | 1 | 0.999 | 0.562 | 0.468 | 1 | 0.8 | 1 | 0.801 | 0.707 | 0.32 | 0.406 | 0.346 | 0.708 | 0.478 | 0.264 | 0.622 | 0.69 |
